From US8754049B2, “Organic compound for the regulation of vectorial ion channels” (APEPTICO Forschung und Entwicklung GmbH, priority 2010, dated 2014)
Non-standard residues stand in square brackets, D forms with d. Residues, ends and D or L forms follow the SMILES beside them. Ahp = NCCCCCCC(=O)O

Assays:
[1] = target: T1, epithelial sodium channels (Homo sapiens, UniProt P37088+P51168+P51170); experiment: Patch-clamp measurement, whole cell configuration, amiloride-sensitive sodium current in A549 cells; format: cell-based; settings: for Activity in comparison to a peptide SEQ ID NO: 10 CGQRETPEGAEKPWYC ("TIP-Peptid", Lucas et al. Science 1994 also WO00/09149): whole cell patch-clamp, A549 cells, amiloride-sensitive sodium current, relative to TIP peptide SEQ ID NO: 10
T1 construct: endogenous in cells; host or cells: A549 human lung epithelial cells (ATTC No. CCL-185)
T1 sequence (P51170 whole entry): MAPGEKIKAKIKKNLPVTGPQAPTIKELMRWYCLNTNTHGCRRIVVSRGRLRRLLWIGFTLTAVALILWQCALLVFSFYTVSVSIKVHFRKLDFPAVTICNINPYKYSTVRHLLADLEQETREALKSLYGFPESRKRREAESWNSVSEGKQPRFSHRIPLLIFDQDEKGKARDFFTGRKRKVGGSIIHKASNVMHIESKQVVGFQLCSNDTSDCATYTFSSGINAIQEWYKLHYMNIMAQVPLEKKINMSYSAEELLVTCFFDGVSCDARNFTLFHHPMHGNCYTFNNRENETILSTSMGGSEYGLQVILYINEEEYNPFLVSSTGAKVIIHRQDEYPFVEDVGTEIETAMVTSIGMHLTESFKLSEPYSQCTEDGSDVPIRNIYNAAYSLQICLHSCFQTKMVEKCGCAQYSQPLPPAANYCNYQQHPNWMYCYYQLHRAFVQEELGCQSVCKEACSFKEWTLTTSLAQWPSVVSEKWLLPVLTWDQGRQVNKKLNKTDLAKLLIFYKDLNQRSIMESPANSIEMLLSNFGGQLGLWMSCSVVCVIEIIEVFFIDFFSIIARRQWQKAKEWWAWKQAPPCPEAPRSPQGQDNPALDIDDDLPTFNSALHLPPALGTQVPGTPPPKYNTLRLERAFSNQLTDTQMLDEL
T1 sequence (P37088 whole entry): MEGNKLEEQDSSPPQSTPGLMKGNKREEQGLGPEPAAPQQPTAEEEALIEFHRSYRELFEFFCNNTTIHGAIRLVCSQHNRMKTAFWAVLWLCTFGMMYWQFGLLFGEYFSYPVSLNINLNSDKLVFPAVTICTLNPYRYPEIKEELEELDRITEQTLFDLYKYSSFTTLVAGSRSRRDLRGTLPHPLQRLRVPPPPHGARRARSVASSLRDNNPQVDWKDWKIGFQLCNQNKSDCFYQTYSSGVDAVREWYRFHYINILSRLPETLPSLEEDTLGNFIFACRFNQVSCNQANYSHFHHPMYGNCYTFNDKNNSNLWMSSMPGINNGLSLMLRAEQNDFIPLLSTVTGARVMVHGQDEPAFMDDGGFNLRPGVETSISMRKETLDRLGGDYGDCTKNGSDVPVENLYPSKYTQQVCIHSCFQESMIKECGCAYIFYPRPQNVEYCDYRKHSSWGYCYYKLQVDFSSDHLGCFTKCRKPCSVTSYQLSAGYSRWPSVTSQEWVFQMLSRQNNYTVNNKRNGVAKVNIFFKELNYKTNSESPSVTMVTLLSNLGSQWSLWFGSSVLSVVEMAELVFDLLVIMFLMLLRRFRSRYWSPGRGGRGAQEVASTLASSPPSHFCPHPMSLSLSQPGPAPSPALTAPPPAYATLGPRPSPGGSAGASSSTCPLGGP
T1 sequence (P51168 whole entry): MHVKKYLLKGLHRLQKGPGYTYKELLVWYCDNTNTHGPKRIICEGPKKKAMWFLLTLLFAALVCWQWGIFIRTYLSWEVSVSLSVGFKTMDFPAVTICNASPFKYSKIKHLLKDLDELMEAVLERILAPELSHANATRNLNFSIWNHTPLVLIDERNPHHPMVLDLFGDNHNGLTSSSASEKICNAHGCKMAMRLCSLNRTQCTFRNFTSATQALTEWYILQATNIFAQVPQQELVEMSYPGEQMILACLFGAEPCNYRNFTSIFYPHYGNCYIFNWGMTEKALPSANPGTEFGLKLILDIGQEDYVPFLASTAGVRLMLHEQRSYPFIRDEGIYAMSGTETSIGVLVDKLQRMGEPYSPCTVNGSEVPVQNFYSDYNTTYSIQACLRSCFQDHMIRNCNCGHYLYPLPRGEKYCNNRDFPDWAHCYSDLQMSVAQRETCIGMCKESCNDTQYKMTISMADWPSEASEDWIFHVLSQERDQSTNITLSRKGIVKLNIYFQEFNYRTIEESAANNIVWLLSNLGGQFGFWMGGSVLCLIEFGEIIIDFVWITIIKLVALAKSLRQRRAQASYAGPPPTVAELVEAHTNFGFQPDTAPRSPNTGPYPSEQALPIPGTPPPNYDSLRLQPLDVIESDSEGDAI
From the text: The detection of a vectorial regulation of ion channels by a compound may be effected according to a method common in laboratories, for example, according to Clunes M. T. et al., J. Physiolo. (2004) 557.3: 809-819), via patch-clamp experiments. For patch-clamp examinations of ion channels, a glass cannula is stretched thin and filled with a neutral buffer solution. The glass cannula (patch-clamp pipette) is carefully pressed onto an intact epithelial cell. A piece of membrane is located below the pipette. An electrical resistance is thereby produced between the interior of the pipette and the external solution. An electrode attached to a sensitive amplifier dips into the pipette solution.
A regulation of the vectorial epithelial ion channels is detected via a change in the current intensity with a constant voltage.
(§1) The electrophysiological experiments were performed on human A549 cells (ATTC No. CCL-185). A549 cells are human lung epithelial cells which are involved in the diffusion of water and electrolytes in the lungs. The cells were suspended in RPMI-1640 medium (Sigma-Aldrich, product number R6504) with 1% penicillin/streptomycin and 10% fetal calf serum, transferred into plastic cell culture vessels and cultivated in an incubator with 95% air and 5% CO2 at 37° C. The medium was changed 2 to 3 times per week. The cells double within approx. 22 hours, and a cell concentration of more than 7×10^4 cells per cm^2 was not exceeded.
For the patch-clamp experiments, the cells were transferred onto small glass plates.
Macroscopic currents were discharged from A549 cells in the “whole cell” configuration of the “patch-clamp” technique (Hamill et al, Pflugers Arch. 1981, 391(2):85-100, 1981). For the current dissipations in the “whole cell” configuration, the following bath and electrode solutions were used:
Bath solution: 135 mM sodium methanesulfonate, 10 mM NaCl, 2.7 mM KCl, 1.8 mM CaCl2, 2 mM MgCl2, 5.5 mM glucose, and 10 mM HEPES, pH 7.4.
Electrode solution: 120 mM potassium methanesulfonate, 15 mM KCl, 6 mM NaCl, 1 mM Mg2ATP, 2 mM Na3ATP, 10 mM HEPES, and 0.5 mM EGTA (pH 7.2).
Cover slips with the cells cultivated thereon were transferred into a test bath with a capacity of 1 ml, fixed on the microscope table (Axiovert 100, 400-fold magnification), and the cells were superfused with the above-described bath solution. Thereupon, the current was discharged from a suitable cell (which adheres to the cover slip). For this purpose, a microelectrode filled with an electrolyte solution (glass capillary with a defined, heat-polished tip opening of about 1-3 μm, corresponding to a resistance of the electrode tip of […]) was placed on the cell and the membrane was sucked in so that a “Gigaohm seal” was formed between the membrane and the electrode in order to minimize the leakage current. In the “whole cell” configuration, the membrane was penetrated beneath the electrode tip so that the current flowing through all ion channels of the cell could be measured. Upon obtaining a Gigaohm seal, a defined membrane retaining potential was applied via a pre-amplifier (CV-4 Headstage, Axon Instruments) and an amplifier (Axopatch 1 D, Axon Instr.) and the current thereby flowing through the ion channels was measured.
The pulse protocol consisted of a hyperpolarization of the cell membrane to −100 mV for 5 s and a subsequent gradual depolarization to +100 mV in 20 mV steps.
This protocol was performed before (control) and after the addition of ring-shaped organic molecules. The current dissipations thus obtained were stored and analyzed by means of the program PCLAMP 6.0. For this purpose, the current dissipations obtained in the presence of amiloride were subtracted from the currents recorded earlier so that the amiloride-sensitive sodium current through the epithelial sodium channels could be determined.

human A549 cells = experiment: Microscopic observation of A549 cells after addition of compounds; format: cell-based; settings: microscopic observation after addition of compound
Protocol: as §1
The cells were microscopically observed.

Row | Molecule | Activity in comparison to a peptide SEQ ID NO: 10 CGQRETPEGAEKPWYC ("TIP-Peptid", Lucas et al. Science 1994 also WO00/09149) [1] [%] | changes in morphology or cell growth (human A549 cells) | death of cells (human A549 cells) | activation of the vectorial ionic current compared with known peptides SEQ ID NO: 10, 11 and 12 ([1]; patch-clamp, comparison in words)
1 | C[C@@H]1NC(=O)CNC(=O)[C@H](CCC(=O)O)NC(=O)[C@@H]2CCCN2C(=O)[C@H]([C@@H](C)O)NC(=O)[C@H](CCC(=O)O)NC(=O)[C@H](CCCNC(=N)N)NC(=O)[C@H](CCC(N)=O)NC(=O)CNC(=O)[C@@H](N)CCCCNC(=O)CNC(=O)[C@H](Cc2ccc(O)cc2)NC(=O)[C@H](Cc2c[nH]c3ccccc23)NC(=O)[C@@H]2CCCN2C(=O)[C@H](CCCCN)NC(=O)[C@H](C)NC(=O)[C@H](CCC(=O)O)NC1=O [SEQ ID NO: 1, [KGQRETPEGAEAKPWYG] (cyclo Kepsilon1-G17)] | 150 | did not produce any changes in morphology or cell growth | did not result in the death of cells | 
2 | C[C@@H]1NC(=O)CNC(=O)[C@H](CCC(=O)O)NC(=O)[C@@H]2CCCN2C(=O)[C@H]([C@@H](C)O)NC(=O)[C@H](CCC(=O)O)NC(=O)[C@H](CCCNC(=N)N)NC(=O)[C@H](CCC(N)=O)NC(=O)CNC(=O)[C@@H](N)CCCNC(=O)CNC(=O)[C@H](Cc2ccc(O)cc2)NC(=O)[C@H](Cc2c[nH]c3ccccc23)NC(=O)[C@@H]2CCCN2C(=O)[C@H](CCCCN)NC(=O)[C@H](C)NC(=O)[C@H](CCC(=O)O)NC1=O [SEQ ID NO: 2, [ornithine-GQRETPEGAEAKPWYG] (cyclo Orn-delta1-G17)] | 115 | did not produce any changes in morphology or cell growth | did not result in the death of cells | 
3 | C[C@@H]1NC(=O)CNC(=O)[C@H](CCC(=O)O)NC(=O)[C@@H]2CCCN2C(=O)[C@H]([C@@H](C)O)NC(=O)[C@H](CCC(=O)O)NC(=O)[C@H](CCCNC(=N)N)NC(=O)[C@H](CCC(N)=O)NC(=O)CNC(=O)CCCCNC(=O)CNC(=O)[C@H](Cc2ccc(O)cc2)NC(=O)[C@H](Cc2c[nH]c3ccccc23)NC(=O)[C@@H]2CCCN2C(=O)[C@H](CCCCN)NC(=O)[C@H](C)NC(=O)[C@H](CCC(=O)O)NC1=O [SEQ ID NO: 3, [5-amino-pentanoic acid-GQRETPEGAEAKPWYG] (cyclo 1-17)] |  | did not produce any changes in morphology or cell growth | did not result in the death of cells | 
4 | C[C@@H]1NC(=O)CNC(=O)[C@H](CCC(=O)O)NC(=O)[C@@H]2CCCN2C(=O)[C@H]([C@@H](C)O)NC(=O)[C@H](CCC(=O)O)NC(=O)[C@H](CCCNC(=N)N)NC(=O)[C@H](CCC(N)=O)NC(=O)CNC(=O)CCCNC(=O)CNC(=O)[C@H](Cc2ccc(O)cc2)NC(=O)[C@H](Cc2c[nH]c3ccccc23)NC(=O)[C@@H]2CCCN2C(=O)[C@H](CCCCN)NC(=O)[C@H](C)NC(=O)[C@H](CCC(=O)O)NC1=O [SEQ ID NO: 4, [gamma-aminobutyric acid-GQRETPEGAEAKPWYG] (cyclo 1-17)] |  | did not produce any changes in morphology or cell growth | did not result in the death of cells | 
5 | C[C@@H]1NC(=O)CNC(=O)[C@H](CCC(=O)O)NC(=O)[C@@H]2CCCN2C(=O)[C@H]([C@@H](C)O)NC(=O)[C@H](CCC(=O)O)NC(=O)[C@H](CCCNC(=N)N)NC(=O)[C@H](CCC(N)=O)NC(=O)CNC(=O)CCCNC(=O)C[C@@H](C(=O)O)NC(=O)[C@H](Cc2ccc(O)cc2)NC(=O)[C@H](Cc2c[nH]c3ccccc23)NC(=O)[C@@H]2CCCN2C(=O)[C@H](CCCCN)NC(=O)[C@H](C)NC(=O)[C@H](CCC(=O)O)NC1=O [SEQ ID NO: 5, [gamma-aminobutyric acid-GQRETPEGAEAKPWYD-OH] (cyclo 1-Dγ17)] | 160 | did not produce any changes in morphology or cell growth | did not result in the death of cells | 
6 | C[C@@H]1NC(=O)CNC(=O)[C@H](CCC(=O)O)NC(=O)[C@@H]2CCCN2C(=O)[C@H]([C@@H](C)O)NC(=O)[C@H](CCC(=O)O)NC(=O)[C@H](CCCNC(=N)N)NC(=O)[C@H](CCC(N)=O)NC(=O)CNC(=O)CCNC(=O)CC[C@@H](C(=O)O)NC(=O)[C@H](Cc2ccc(O)cc2)NC(=O)[C@H](Cc2c[nH]c3ccccc23)NC(=O)[C@@H]2CCCN2C(=O)[C@H](CCCCN)NC(=O)[C@H](C)NC(=O)[C@H](CCC(=O)O)NC1=O [SEQ ID NO: 6, [3-amino-propanoic acid-GQRETPEGAEAKPWYE-OH] (cyclo 1-Eδ17)] | 150 | did not produce any changes in morphology or cell growth | did not result in the death of cells | 
7 | C[C@@H]1NC(=O)CNC(=O)[C@H](CCC(=O)O)NC(=O)[C@@H]2CCCN2C(=O)[C@H]([C@@H](C)O)NC(=O)[C@H](CCC(=O)O)NC(=O)[C@H](CCCNC(=N)N)NC(=O)[C@H](CCC(N)=O)NC(=O)CNC(=O)CCCCCCNC(=O)[C@H](Cc2ccc(O)cc2)NC(=O)[C@H](Cc2c[nH]c3ccccc23)NC(=O)[C@@H]2CCCN2C(=O)[C@H](CCCCN)NC(=O)[C@H](C)NC(=O)[C@H](CCC(=O)O)NC1=O [SEQ ID NO: 7, [7-amino-heptanoic acid-GQRETPEGAEAKPWY] (cyclo 1-16)] (cyclo(AEAKPWY[Ahp]GQRETPEG)) |  | did not produce any changes in morphology or cell growth | did not result in the death of cells | 
8 | CGTKPIELGPDEPKAVC (peptide published in EP 2 009 023) [SEQ ID NO: 11, known peptide for controlling fluid content in the alveoli, from EP 2 009 023, reference compound] | 80 |  |  | 
9 | LSPGQRETPEGAEAKPWYE (peptide published in WO 2009/073909) [SEQ ID NO: 12, known peptide from WO2009/073909 (PCT AT2008 448), reference compound] | 60 |  |  | 
10 | [6-amino-hexanoic acid-GQRETPEGAEAKPWYG] (cyclo 1-17) [SEQ ID NO: 8] | 150 | did not produce any changes in morphology or cell growth | did not result in the death of cells | significantly higher activations of the vectorial ionic current
